From ChEMBL document CHEMBL1135058, “New anti-malarial compounds from database searching” (Bioorg Med Chem Lett, 2002)

Columns and labels:
Plasmodium falciparum [1] = experiment: In vitro inhibition as IC50 against Plasmodium falciparum by [3H]hypoxanthine uptake; format: functional, organism-based
Plasmodium falciparum [2] = experiment: In vitro inhibition as IC50 against Plasmodium falciparum by [3H]hypoxanthine uptake; Not active; format: functional, organism-based
[3] = Plasmodium falciparum, read-out: IC50

SMILES | IC50 (Plasmodium falciparum [1]; [3]) [µM] | further results
COc1ccc(/C(=N\O)c2nccc3cc(OC)c(OC)cc23)cc1OC | 20 | 
COc1cc(C(=O)C(O)c2cc(OC)c(OC)c(OC)c2)cc(OC)c1OC (centres undefined) | 20 | 
Cc1ccc(C(C)C)c(OP(=S)(S)Oc2cc(C)ccc2C(C)C)c1 |  | IC50 (Plasmodium falciparum [2]): Not Active
COc1cccc(CN2CCCN(Cc3cccc(OC)c3O)C2c2ccc(N(CCCl)CCCl)cc2C)c1O | 1.2 | 
CCN(CC)CCCC(C)Nc1ccnc2cc(Cl)ccc12.O=P(O)(O)O.O=P(O)(O)O (centres undefined) [CHLOROQUINE PHOSPHATE] |  | IC50 (Plasmodium falciparum [1]): 0.16 µg/mL
COc1ccccc1/C=C/C(=O)O [COUMARINIC ACID METHYL ETHER] | 3 | 

The next lines start with results.

IC50 (Plasmodium falciparum [1]; [3]) [µM] | SMILES | further results
> 2 | COc1cc(C(c2c(O)oc3ccccc3c2=O)c2c(O)oc3ccccc3c2=O)cc(OC)c1OC | 
6.2 | COc1ccc(CC(=O)c2c(O)c3c(c(CC=C(C)C)c2OC)OC(C)(C)CC3)cc1 | 
4.6 | COc1cccc(C(O)C2=CC(=O)c3ccccc3C2=O)c1OC (centres undefined) | 
4 | CCN(CC)c1ccc(NCC(O)c2cc(Cl)ccc2OC)cc1 (centres undefined) | 
3.2 | COc1ccc(C2OCC3(O)C(c4ccc(OC)c(OC)c4)OCC23)cc1OC (centres undefined) | 
20 | O=C1C=CC(=C(c2ccc(O)cc2)c2c(Cl)c(Cl)c(Cl)c(Cl)c2C(=O)O)C=C1 | 
6.6 | Cc1cc2c3c(c1-c1c(C)cc4c(C(C)C)c(O)c(O)c(C=N)c4c1O)OC1=C4C(=O)C(O)C(C(C)C)c5cc(C)c(-c6c(C)cc7c(C(C)C)c(O)c(O)c(C=O)c7c6O)c(c54)OC(=C3C(=O)C(O)C2C(C)C)N1 (centres undefined) | 
8 | COc1ccc(C(O)C2c3c(cc4c(c3OC)OCO4)CCN2C)c(CO)c1OC (centres undefined) | 
